Measurements from patent US10653780B2, “Amino lipids and methods for the delivery of nucleic acids” (ARBUTUS BIOPHARMA CORPORATION, priority 2008, dated 2020).
“And” between values parts separate entries of the source, which are not always exact repeats. Identical values can stand only once. Like-named read-outs stand apart in the source and are kept apart here.

Assays:
Factor VII (FVII) [1] = conditions: for ED50: siRNA dose reducing serum FVII protein by 50% at 24 h, PFV LN-siRNA 40/10/40/10
Source text: It is well established that in vivo RNAi silencing of specific hepatocyte proteins can be achieved following intravenous (i.v.) administration of siRNA's encapsulated in, or associated with, select nanoparticles designed for intracellular delivery. […] In this Example, rational design in combination with in vivo screening were applied to systematically modify the structure of DLinDMA and identify molecular features that enhance or reduce cationic lipid potency. More than 30 lipids were synthesized and incorporated into nucleic acid-lipid particles, i.e., lipid nanoparticles (LN) encapsulating an siRNA (LN-siRNA) targeting Factor VII (FVII), a blood clotting component synthesized and secreted by hepatocytes that is readily measured in serum. LN-siRNA systems were prepared using the same process, lipid molar ratios and particle size to minimize effects on activity resulting from formulation characteristics other than the cationic lipid. Each formulation was administered as a single bolus injection over a range of doses enabling an estimate of the siRNA dose required to reduce FVII serum protein concentrations by 50% after 24 h (ED50).
FVII activity was evaluated in FVII siRNA-treated animals at 24 hours after intravenous (bolus) injection in C57BL/6 mice or 48 hours after intravenous (bolus) injection in SD rats. Six to 8 week old, female C57Bl/6 mice were obtained from Charles River Laboratories and acclimated for one week prior to use in studies. Animals were held in a pathogen-free environment and all procedures involving animals were performed in accordance with the guidelines established by the Canadian Council on Animal Care.
LN-siRNA systems containing Factor VII siRNA were diluted to the appropriate concentrations in sterile phosphate buffered saline immediately prior to use, and the formulations were administered intravenously via the lateral tail vein in a total volume of 10 ml/kg. After 24 h, animals were anaesthetised with Ketamine/Xylazine and blood was collected by cardiac puncture and processed to serum (Microtainer Serum Separator Tubes; Becton Dickinson, Franklin Lakes, N.J., USA). Serum was tested immediately or stored at −70° C. for later analysis for serum Factor VII levels.
FVII was measured using a commercially available kit (Biophen FVII Kit™; Aniara Corp., Mason, Ohio), following the manufacturer's instructions at a microplate scale. FVII reduction was determined against untreated control animals, and the results were expressed as % Residual FVII. Five dose levels (0.1, 0.3, 0.5, 1.0, and 3.0 mg/kg) were typically used.
Serum Factor VII levels were determined using the colorimetric Biophen VII assay kit (Anaira, USA). Briefly, serially diluted pooled control serum (200%-3.125%) and appropriately diluted plasma samples from treated animals were analyzed using the Biophen VII kit according to manufacturer's instructions in 96-well, flat bottom, non-binding polystyrene assay plates (Corning, Corning, N.Y.) and absorbance at 405 nm was measured. A calibration curve was generated using the serial diluted control serum and used to determine levels of Factor VII in serum from treated animals.
Initial studies were performed in eight to 10 week old, female C57BL/6 mice in two stages. In the first stage, the activity associated with the benchmark lipid DLinDMA was compared to the activity associated with modified forms of DLinDMA.

Factor VII (FVII) [2] = assay: In vivo FVII activity of nucleic acid-lipid formulations in rats; parameters: species or system SD rats; conditions: PEG-C-DOMG as PEG-lipid
Procedure: The ability of various nucleic acid-lipid formulations comprising different cationic lipids was further explored in mice and rats. Each of the tested nucleic acid-lipid formulations was prepared as described above using PEG-C-DOMG as the PEG-lipid. The formulations initially tested (which included either DLin-K-DMA, DLin-K-MPZ, DLin-K-C2-DMA, or DLin-K-C4-DMA) reduced residual FVII levels in both mice (FIG. 3) and rats (FIG. 4). […] The activity of the DLin-K-C2-DMA formulation was approximately 2-3-fold greater than the DLin-K-DMA formulation in mice, and approximately 10-20-fold greater than the DLin-K-DMA formulation in rats. A comparison of FVII reduction in mice and rats using the DLin-K-DMA formulation or the DLin-K-C2-DMA formulation is shown in FIG. 5.

[3] = format: in vivo; conditions: rats
Procedure: (§1) Data was recorded as % Change in Body Weight.
Histopathology results for livers obtained from rats treated with 91 mg/kg (“5” mg/kg) were normal.

[4] = Tolerability of DLin-K-C2-DMA lipid particles in mice; format: in vivo
Procedure: as §1

[5] = Bilayer-to-hexagonal HII transition temperature (TBH) in equimolar mixtures with DSPS; format: physicochemical
Source text: Both techniques gave similar results.

transthyretin (TTR) = assay: TTR silencing by KC2-SNALP-formulated siTTR in non-human primates (liver TTR mRNA); format: in vivo, Cynomolgus monkeys; conditions: Macaca fascicularis, iv, single 15 minute i.v. infusion; 48 hours post-administration
Source text: FIGS. 9A-B illustrate the efficacy of KC2-SNALP formulations. FIG. 9A is a graph showing the improved efficacy of KC2-SNALP versus a DLin-K-C2-DMA PFV formulation in mice. The in vivo efficacy of KC2-SNALP (◯) was compared to that of the un-optimized DLin-KC2-DMA PFV formulation (●) in the mouse FVII model. Data points are expressed as a percentage of PBS control animals and represent group mean (n=5)±s.d. FIG. 9B depicts the efficacy of KC2-SNALP in non-human primates. Cynomolgus monkeys (n=3 per group) received either 0.03, 0.1, 0.3 or 1 mg/kg siTTR, or 1 mg/kg siApoB formulated in KC2-SNALP or PBS as 15 minute intravenous infusions (5 mL/kg) via the cephalic vein. Animals were sacrificed at 48 hours post-administration. TTR mRNA levels relative to GAPDH mRNA levels were determined in liver samples. Data points represent group mean±s.d. *=P<0.05; **=P<0.005.
Given the promising activity and safety profile observed in rodents in the studies described in Example 17, studies were performed in non-human primates to investigate the translation of DLin-KC2-DMA activity in higher species. For these studies, transthyretin (TTR), a hepatic gene of high therapeutic interest, was targeted. […]
Tissues were harvested at 48 hours post-administration, and liver mRNA levels of TTR were determined. […]

[6] = In situ determination of apparent pKa using TNS fluorescence titration
Source text: In situ pKa measurements were made using the pH sensitive fluorescent probe TNS, using a modification of the approach previously published in Bailey, A. L. and Cullis, P. R., Biochemistry 33:12573-12580 (1994).
Titrations of surface charge as a function of pH can then be used to determine the apparent pKa (hereafter referred to as pKa) of constituent lipids (Cullis, P. R., et al., Chem Phys Lipids 40:127-144 (1986)).

CCCCC/C=C\C/C=C\CCCCCCCCC1(CCCCCCCC/C=C\C/C=C\CCCCC)OCC(CCN(C)C)O1 (centres unmarked) [DLin-K-C2-DMA, 2,2-Dilinoleyl-4-(2-dimethylaminoethyl)-[1,3]-dioxolane]
ED50 (Factor VII (FVII) [1]; Table 6): ~0.1 mg/kg
FVII ED50 (Factor VII (FVII) [1]; Table 11): ~0.1 mg/kg
fold more potent / greater activity than DLin-K-DMA (Factor VII (FVII) [1]; mice): 4 fold and 2-3 fold
fold difference in in vivo activity between DLin-K-C2-DMA and DLin-K-C4-DMA (Factor VII (FVII) [1]; mouse, in vivo): > 30 fold
fold more potent than the DLinDMA benchmark (Factor VII (FVII) [1]; reducing serum FVII protein, mouse, head-to-head): 10 fold
siRNA dose as low as which in vivo activity was exhibited (Factor VII (FVII) [1]; rodents): 0.01 mg/kg
ED50 (Factor VII (FVII) [1]): ~0.1 mg/kg
encapsulated siRNA sufficient to knockdown serum FVII protein by 50% (Factor VII (FVII) [1]; single i.v. bolus to a mouse, within 24 h, 40 mole % cationic lipid): ~100 picomoles
fold greater activity than the DLin-K-DMA formulation (Factor VII (FVII) [2]): 10-20 fold
lipid dose as low as which significant increases in ALT/AST were seen [3]: 182 mg/kg lipid
liver histopathology ([3]; 91 mg/kg): normal
clinical observations and liver appearance ([3]; 91 mg/kg lipid): appeared normal and had normal livers
liver histopathology ([3]; 182 mg/kg): mild to moderate hepatocellular necrosis, centrilobular, and hepatocellular vacuolization
clinical observations ([3]; 182 mg/kg lipid): slower movement and a scruffy coat
clinical observations and liver appearance ([3]; 364 mg/kg lipid): hunched, slower movement, quinting eyes, scruffy coats, piloerection, red/orange uring, with pale and some mottling livers
mortality ([3]; 364 mg/kg lipid): one died
body weight ([3]; 24 hours after i.v. treatment): dose-dependent loss of weight
body weight ([4]; mice): dose-dependent loss of weight
increase in ALT-AST ([4]; mice, approximately 1100 mg/kg lipid): greater than 10 fold
clinical signs ([4]; mice, except at greater than 1300 mg/kg (hunched, slower movement, scruffy coat)): no obvious clinical signs
mortality ([4]; mouse, in vivo): no mice died
TBH lower than that for DLinDMA [5]: 7 °C
HII transition temperature ([5]; equimolar with DSPS, pH 4.8, 31P NMR and DSC): 20 °C
ED50 (transthyretin (TTR)): 0.3 mg/kg
pKa [6]: 6.4
pKa ([6]; nucleic acid-lipid particles containing the cationic lipid): 6.4
